Like-named read-outs stand apart in the source and are kept apart here.
Columns and labels:
ENT1 = molecular target: T1, ENT1 (Homo sapiens, UniProt Q99808); test: Uptake inhibition assay, ENT1-overexpressing MDCKII cells; format: cell-based; settings: for IC50: oxindole alkaloids, substrate uridine, read-out: IC50 (95% CI of IC50)
T1 construct: expressed in transfected cells; host or cells: MDCKII (lentiviral transduction; cDNA synthesised by GenScript)
T1 sequence (Q99808 1-456): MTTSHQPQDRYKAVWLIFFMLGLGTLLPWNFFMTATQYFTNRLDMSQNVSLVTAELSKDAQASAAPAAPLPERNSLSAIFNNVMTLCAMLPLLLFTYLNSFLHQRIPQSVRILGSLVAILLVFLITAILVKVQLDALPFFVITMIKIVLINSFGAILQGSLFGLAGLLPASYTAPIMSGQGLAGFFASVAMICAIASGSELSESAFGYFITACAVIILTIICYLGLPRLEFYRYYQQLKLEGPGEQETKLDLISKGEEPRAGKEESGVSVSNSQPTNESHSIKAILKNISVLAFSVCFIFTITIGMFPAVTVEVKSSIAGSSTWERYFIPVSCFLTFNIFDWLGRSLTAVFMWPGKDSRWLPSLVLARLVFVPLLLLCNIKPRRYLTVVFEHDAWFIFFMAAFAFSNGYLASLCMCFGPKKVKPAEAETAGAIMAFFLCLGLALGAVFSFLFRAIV
Excerpt: The human embryonic kidney 293 (HEK293) cell line was purchased from Invitrogen/ThermoFisher (Waltham, MA, USA). Madin–Darby canine kidney II (MDCKII) wild type cells were obtained from the European Collection of Authenticated Cell Cultures (ECACC catalog no. 00062107). HEK293 cells overexpressing the human uptake OATP1B1 (NCBI Reference Sequence: NM_006446.4), OATP1B3 (NM_019844), OATP2B1 (NM_007256), OATP1A2 (NM_134431), OAT1-3 (BC033682.1; NM_006672.3; BC022387), OCT1-3 (BC126364.1; NM_003058; NM_021977), OCTN1 (NM_003059.3), NTCP (NM_003049.3), MATE1 (NM_018242.3), MATE2K (NM_001099646.2), ENT4 (NM_001040661.1), SGLT2 (AJ133127.1), ASCT1/2 (NM_003038.5; NM_005628.3), LAT1/2 (NM_003486.6; NM_012244.4), and THTR1/2 (NM_006996; NM_025243) and mock and human efflux BCRP (NM_004827.2), BSEP (NM_003742.2), MDR1 (NM_000927.4), and MRP1-5 (NM_004996; NM_000392.4; BC137347.1; NM_005845.4; NM_005688.2) transporters as well as MDCKII overexpressing human ENT1/2 (NM_001078177; NM_001532.2) and URAT1 (BC053348) transporters were created by lentiviral transduction. The cDNA encoding respective transporters were synthetized and cloned by GenScript (Piscataway, NJ, USA). […]
(§1) Plated cells were preincubated with a transport buffer (HBSS) containing 30 or 150 µg/mL of UT extract or 100 µM of isopteropodine, mitraphylline, or uncarine D for 15 min at an appropriate temperature. […] For radiolabeled substrates, accumulation was measured by liquid scintillation counting (MicroBeta Scintillation Counter, PerkinElmer).
(§2) The transporter-mediated uptake and ATP-dependent transport were determined by subtracting the activity of the control cell/transporter abundant-membrane in the presence of AMP from the activity of the transporter-overexpressing cell/transporter-abundant membrane in the presence of ATP. The relative transporter-specific accumulation was expressed as the percent of DMSO activity. […] Confidence intervals (CIs) of 95% were also determined. […]

MRPs = settings: cited from earlier work
MDR1 = settings: MDR1-overexpressing MDCKII cells and Caco-2 cells; cited from earlier work
OATP2B1 = molecular target: T2, OATP2B1 (Homo sapiens, UniProt O94956); test: Uptake inhibition assay, OATP2B1-overexpressing HEK293 cells; format: cell-based; settings: oxindole alkaloids, substrate E3S, read-out: IC50 (95% CI of IC50)
T2 construct: expressed in transfected cells; host or cells: HEK293 (lentiviral transduction; cDNA synthesised by GenScript)
Protocol: (§3) The human embryonic kidney 293 (HEK293) cell line was purchased from Invitrogen/ThermoFisher (Waltham, MA, USA). Madin–Darby canine kidney II (MDCKII) wild type cells were obtained from the European Collection of Authenticated Cell Cultures (ECACC catalog no. 00062107). […]
as §1, §2

OAT3 = molecular target: T3, OAT3 (Homo sapiens, UniProt Q8TCC7); test: Uptake inhibition assay, OAT3-overexpressing HEK293 cells; format: cell-based; settings: oxindole alkaloids, substrate E3S, read-out: IC50 (95% CI of IC50)
T3 construct: expressed in transfected cells; host or cells: HEK293 (lentiviral transduction; cDNA synthesised by GenScript)
Protocol: as §3, §1, §2

SGLT2 = molecular target: T4, SGLT2 (Homo sapiens, UniProt P31639); test: Uptake inhibition assay, SGLT2-overexpressing HEK293 cells; format: cell-based
T4 construct: expressed in transfected cells; host or cells: HEK293 (lentiviral transduction; cDNA synthesised by GenScript)
Protocol: as §3, §1, §2

ENT4 = molecular target: T5, ENT4 (Homo sapiens, UniProt Q7RTT9); test: Uptake inhibition assay, ENT4-overexpressing HEK293 cells; format: cell-based; settings: 100 µM alkaloid
T5 construct: expressed in transfected cells; host or cells: HEK293 (lentiviral transduction; cDNA synthesised by GenScript)
Protocol: as §3, §1, §2

OAT2 = molecular target: T6, OAT2 (Homo sapiens, UniProt Q9Y694); test: Uptake inhibition assay, OAT2-overexpressing HEK293 cells; format: cell-based; settings: at 100 µM
T6 construct: expressed in transfected cells; host or cells: HEK293 (lentiviral transduction; cDNA synthesised by GenScript)
Protocol: as §3, §1, §2

T3 sequence (Q8TCC7 whole entry): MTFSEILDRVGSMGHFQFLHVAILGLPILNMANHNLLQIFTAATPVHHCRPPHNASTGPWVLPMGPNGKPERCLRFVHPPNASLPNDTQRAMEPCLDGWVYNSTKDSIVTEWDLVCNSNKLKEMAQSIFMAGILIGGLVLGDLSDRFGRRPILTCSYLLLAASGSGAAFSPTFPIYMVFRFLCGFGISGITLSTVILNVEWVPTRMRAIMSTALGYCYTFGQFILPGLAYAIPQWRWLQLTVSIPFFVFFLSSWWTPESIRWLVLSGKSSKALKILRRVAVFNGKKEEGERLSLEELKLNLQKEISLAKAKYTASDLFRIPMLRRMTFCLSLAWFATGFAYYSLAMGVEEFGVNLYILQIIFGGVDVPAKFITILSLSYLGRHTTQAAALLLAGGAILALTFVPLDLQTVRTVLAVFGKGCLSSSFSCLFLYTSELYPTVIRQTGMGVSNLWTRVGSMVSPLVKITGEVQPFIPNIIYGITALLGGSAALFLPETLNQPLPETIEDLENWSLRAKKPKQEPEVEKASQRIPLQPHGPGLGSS
T2 sequence (O94956 whole entry): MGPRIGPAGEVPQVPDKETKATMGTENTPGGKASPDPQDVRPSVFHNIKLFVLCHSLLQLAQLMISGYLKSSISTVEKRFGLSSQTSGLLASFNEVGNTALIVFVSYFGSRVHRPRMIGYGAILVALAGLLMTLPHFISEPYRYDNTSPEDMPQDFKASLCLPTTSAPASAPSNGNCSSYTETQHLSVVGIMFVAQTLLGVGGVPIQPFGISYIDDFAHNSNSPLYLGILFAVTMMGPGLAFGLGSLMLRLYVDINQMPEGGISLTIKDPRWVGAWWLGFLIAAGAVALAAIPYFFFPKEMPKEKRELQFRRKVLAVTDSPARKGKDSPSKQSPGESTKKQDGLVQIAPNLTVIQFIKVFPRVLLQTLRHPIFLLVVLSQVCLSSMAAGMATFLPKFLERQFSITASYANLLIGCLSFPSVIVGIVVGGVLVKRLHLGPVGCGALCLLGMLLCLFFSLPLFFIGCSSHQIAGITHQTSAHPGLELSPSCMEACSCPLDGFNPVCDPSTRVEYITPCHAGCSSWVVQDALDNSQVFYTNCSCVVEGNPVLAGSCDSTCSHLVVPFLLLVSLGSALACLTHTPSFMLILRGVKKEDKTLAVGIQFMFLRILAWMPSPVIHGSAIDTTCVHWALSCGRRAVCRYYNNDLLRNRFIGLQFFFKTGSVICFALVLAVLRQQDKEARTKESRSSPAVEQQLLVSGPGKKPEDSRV
T4 sequence (P31639 whole entry): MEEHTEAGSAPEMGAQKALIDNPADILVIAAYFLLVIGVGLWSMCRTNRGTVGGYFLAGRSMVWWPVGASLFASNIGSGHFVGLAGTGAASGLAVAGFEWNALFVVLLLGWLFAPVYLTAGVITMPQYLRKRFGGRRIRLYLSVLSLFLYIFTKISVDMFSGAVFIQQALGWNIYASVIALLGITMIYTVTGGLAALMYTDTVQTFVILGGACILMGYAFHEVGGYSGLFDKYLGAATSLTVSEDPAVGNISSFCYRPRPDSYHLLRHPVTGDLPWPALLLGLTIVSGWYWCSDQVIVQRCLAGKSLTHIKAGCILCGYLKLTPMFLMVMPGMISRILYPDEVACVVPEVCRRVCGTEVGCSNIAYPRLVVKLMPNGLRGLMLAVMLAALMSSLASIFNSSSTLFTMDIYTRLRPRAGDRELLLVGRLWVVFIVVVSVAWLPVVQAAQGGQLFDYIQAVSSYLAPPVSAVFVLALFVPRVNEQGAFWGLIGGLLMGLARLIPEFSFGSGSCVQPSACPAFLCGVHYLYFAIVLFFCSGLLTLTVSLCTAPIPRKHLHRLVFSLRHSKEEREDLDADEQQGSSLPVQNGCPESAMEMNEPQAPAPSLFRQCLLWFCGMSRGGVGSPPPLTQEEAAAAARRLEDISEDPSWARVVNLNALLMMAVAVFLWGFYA
T5 sequence (Q7RTT9 whole entry): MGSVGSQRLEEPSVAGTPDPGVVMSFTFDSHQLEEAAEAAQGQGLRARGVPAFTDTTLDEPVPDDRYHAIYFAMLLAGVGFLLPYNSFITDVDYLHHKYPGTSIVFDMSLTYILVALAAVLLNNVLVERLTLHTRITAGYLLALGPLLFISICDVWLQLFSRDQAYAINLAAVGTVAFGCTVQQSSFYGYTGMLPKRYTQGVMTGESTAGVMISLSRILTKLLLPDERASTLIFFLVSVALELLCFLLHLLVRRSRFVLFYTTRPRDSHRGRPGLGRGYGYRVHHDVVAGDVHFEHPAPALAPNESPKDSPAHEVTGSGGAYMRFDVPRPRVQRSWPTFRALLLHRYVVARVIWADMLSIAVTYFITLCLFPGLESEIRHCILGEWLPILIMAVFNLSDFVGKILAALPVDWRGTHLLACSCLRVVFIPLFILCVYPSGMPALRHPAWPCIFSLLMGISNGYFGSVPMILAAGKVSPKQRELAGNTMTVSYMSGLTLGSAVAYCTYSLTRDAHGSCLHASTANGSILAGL
T6 sequence (Q9Y694 1-546 isoform Q9Y694-2): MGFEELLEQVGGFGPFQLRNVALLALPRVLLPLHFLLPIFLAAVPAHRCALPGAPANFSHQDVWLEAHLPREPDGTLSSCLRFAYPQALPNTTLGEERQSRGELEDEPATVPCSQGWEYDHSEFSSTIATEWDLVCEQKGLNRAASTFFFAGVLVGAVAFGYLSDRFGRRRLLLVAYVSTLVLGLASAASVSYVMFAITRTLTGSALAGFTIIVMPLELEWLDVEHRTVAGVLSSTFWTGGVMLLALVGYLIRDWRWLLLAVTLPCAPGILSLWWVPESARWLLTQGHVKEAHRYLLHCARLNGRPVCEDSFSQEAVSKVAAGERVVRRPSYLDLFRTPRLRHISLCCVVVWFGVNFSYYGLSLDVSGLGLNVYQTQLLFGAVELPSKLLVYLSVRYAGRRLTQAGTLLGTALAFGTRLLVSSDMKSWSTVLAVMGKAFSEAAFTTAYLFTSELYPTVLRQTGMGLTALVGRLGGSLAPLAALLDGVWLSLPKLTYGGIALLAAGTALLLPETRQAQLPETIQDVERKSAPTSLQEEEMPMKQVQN

Row | SMILES | transporter-mediated substrate accumulation (ENT1; in the presence of the alkaloid (100 µM, Figure 3)) | IC50 (ENT1; listed as Mitraphylline) | IC50 (ENT1) | interaction with MRPs (MRPs) | MDR1 substrate status (MDR1) | IC50 (OATP2B1; listed as Isopteropodine) | IC50 (OATP2B1) | IC50 (OAT3; listed as Isopteropodine) | IC50 (OAT3) | decrease of transporter-mediated transport (SGLT2; at 100 µM) | IC50 (SGLT2; oxindole alkaloids, substrate AMG, read-out: IC50 (95% CI of IC50)) | inhibitory effect on transporter-specific transport (ENT4) | decrease of transporter-mediated transport (OAT2)
1 | COC(=O)C1=CO[C@@H](C)[C@H]2CN3CC[C@]4(C(=O)Nc5ccccc54)[C@@H]3C[C@H]12 [mitraphylline] | below 50% | 49.6 µM | 49.6 µM | not to interact with MRPs | MDR1 substrate |  |  |  |  |  |  |  | 
2 | COC(=O)C1=CO[C@@H](C)[C@@H]2CN3CC[C@@]4(C(=O)Nc5ccccc54)[C@@H]3C[C@H]12 [isopteropodine] |  |  |  |  |  | 45.4 µM | 45.4 µM | 46.5 µM | 46.5 µM | around 50% | 72.7 µM | significantly inhibited | around 50%

— article PMC11597817, “Modulation of Multispecific Transporters by Uncaria tomentosa Extract and Its Major Phytoconstituents” (Pharmaceutics, 2024)
